This is an account of results in patent publication US9611248B2, “Chemical compounds” (Syngenta Participations AG, priority 2013, dated 2017).

The structures appear in SMILES notation.

The subject of the test is a variety of test species. Description: Post-emergence herbicidal activity. Type of test: in vivo. Details: key to ABUTH (Abutilon theophrasti) damage score / AMARE (Amaranthus retroflexus) damage score / ALOMY (Alopecurus myosuroides) damage score / ECHCG (Echinochloa crus-galli) damage score / ZEAMX (Zea mays) damage score / SOLNI (Solanum nigrum) damage score: 0 = no damage to plant, 5 = total damage to plant. As to conditions: rate 1000 g/ha, evaluated after 13 days. In outline: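 Damage on a 0–5 scale (5 = plant killed) was rated 13 days after treatment. Test species had been sown in standard soil and raised 8 days under glasshouse conditions of 24/16 °C, 14 h light, 65% humidity. They were then sprayed with aqueous solution from an acetone/water 50:50 formulation containing 0.5% Tween 20.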
On to `COC1=C(C)C(=O)N(c2cc(C)c(Cl)nn2)C1O` (stereo not drawn) [BD11], for which the “ABUTH (Abutilon theophrasti) damage score” value (shortened to “ABUTH”) worked out at 4, the “ALOMY (Alopecurus myosuroides) damage score” value (“ALOMY” below) amounted to 2, the “AMARE (Amaranthus retroflexus) damage score” value (“AMARE” below) was 2 and the “ECHCG (Echinochloa crus-galli) damage score” value (“ECHCG” below) is reported as 1. Also, the “SETFA (Setaria faberi) damage score” value is 2 and the “ZEAMX (Zea mays) damage score” value worked out at 0.

Turning to `COC1=C(C)C(=O)N(c2cc(C(C)(C)C)c(N3CC(F)(F)C3)nn2)C1O` (stereo not drawn) [BD12], the “ABUTH” value was found to be 5, the “ALOMY” value is 4, the “AMARE” value worked out at 5 and the “ECHCG” value is given as 5. Moreover, the “SETFA (Setaria faberi) damage score” value stood at 5 and the “ZEAMX (Zea mays) damage score” value is given as 2.

`COC1=C(C)C(=O)N(c2ccc(C(=O)NC(C)(C)C)nn2)C1O` (stereo not drawn) [BD13]: the “ABUTH” value was determined as 5, the “ALOMY” value amounted to 5, the “AMARE” value was found to be 5 and the “ECHCG” value was 5. Moreover, the “SETFA (Setaria faberi) damage score” value came to 5 and the “ZEAMX (Zea mays) damage score” value was found to be 4.

Take `COC1=C(C)C(=O)N(c2cc(C(C)(C)C)c(-c3cccc(C#N)c3)nn2)C1O` (stereo not drawn) [BD14]: the “ABUTH” value is reported as 4, the “ALOMY” value is given as 4, the “AMARE” value is 5 and the “ECHCG” value is 3. Besides, the “SETFA (Setaria faberi) damage score” value came to 4 and the “ZEAMX (Zea mays) damage score” value is 1.

As to `CC1=C(Cl)C(O)N(c2cc(C(C)(C)C)ncn2)C1=O` (stereo not drawn) [CA1], the “ABUTH” value was 1, the “ALOMY” value amounted to 1, the “AMARE” value stood at 3 and the “ECHCG” value is 1. Further, the “SETFA (Setaria faberi) damage score” value stood at 2 and the “ZEAMX (Zea mays) damage score” value is on record as 1.

For the molecule `CC1=C(Cl)C(O)N(c2cc(C(F)(F)F)ncn2)C1=O` (stereo not drawn) [CA2], the “ABUTH” value is recorded as 0, the “ALOMY” value was found to be 1, the “AMARE” value is recorded as 0 and the “ECHCG” value was 0. In addition, the “SETFA (Setaria faberi) damage score” value worked out at 0 and the “ZEAMX (Zea mays) damage score” value was found to be 0.

In the case of `CCC1=C(Cl)C(O)N(c2cc(C(C)(C)C#N)ncn2)C1=O` (stereo not drawn) [CA3], the “ABUTH” value stood at 1, the “ALOMY” value is given as 0, the “AMARE” value was found to be 1 and the “ECHCG” value came to 0. Also, the “SETFA (Setaria faberi) damage score” value turned out to be 0 and the “ZEAMX (Zea mays) damage score” value is given as 0.

For the molecule `CCCC1=C(Cl)C(O)N(c2cc(C(C)(C)C#N)ncn2)C1=O` (stereo not drawn) [CA4], the “ABUTH” value is reported as 2, the “ALOMY” value stood at 1, the “AMARE” value is 1 and the “ECHCG” value stood at 0. In addition, the “SETFA (Setaria faberi) damage score” value was found to be 1 and the “ZEAMX (Zea mays) damage score” value was found to be 1.

With `CC1=C(Br)C(O)N(c2cc(C(F)(F)F)ncn2)C1=O` (stereo not drawn) [CB1], the “ABUTH” value turned out to be 1, the “ALOMY” value worked out at 1, the “AMARE” value was determined as 1 and the “ECHCG” value worked out at 1. In addition, the “SETFA (Setaria faberi) damage score” value turned out to be 0 and the “ZEAMX (Zea mays) damage score” value worked out at 1.

As for `COC1=C(C)C(=O)N(c2cc(N3CCCCC3)ncn2)C1O` (stereo not drawn) [CD1, 2-hydroxy-3-methoxy-4-methyl-1-[6-(1-piperidyl)pyrimidin-4-yl]-2H-pyrrol-5-one], the “ABUTH” value is on record as 0, the “ALOMY” value turned out to be 0, the “AMARE” value came to 0 and the “ECHCG” value amounted to 0. In addition, the “SETFA (Setaria faberi) damage score” value is recorded as 0 and the “ZEAMX (Zea mays) damage score” value is 0.
